The record followed here is patent US6329363A, “Cephalosporin antibiotics” (Eli Lilly and Company, priority 1998, dated 2001).

Values after ≈ are worked out from the molar mass of the structure shown.

Experiment [1] has as its system S.aureus ATCC 29213. The experiment is described as follows: MIC, in vitro activity vs. S.aureus ATCC 29213. Format: cell-based, Staphylococcus aureus. Set-up: unit not given beside the values. Particulars: Incubated at 37° C. overnight. The protocol: (§1) Table 2 summarizes the minimal inhibitory concentrations (MIC's) at which illustrative formula I compounds and cephalothin inhibit certain microorganisms associated with mastitis, such as Staphylococcus aureus 10092 (Newbould strain).
(§2) ^a Incubated at 37° C. overnight

Experiment [2] relates to S.aureus 174 C. In words: MIC, in vitro activity vs. S.aureus 174 C. Format: cell-based, Staphylococcus aureus. Set-up: unit not given beside the values. The conditions noted are these: Incubated at 37° C. overnight. The protocol: as §1, §2
Experiment [3] has as its system Staphylococcus aureus 10092 (Newbould strain). In words: MIC, in vitro activity vs. S.aureus 10092. Format: cell-based. Also noted: unit not given beside the values. Particulars: Incubated at 37° C. overnight. On the procedure:
as §1, §2

The test system of experiment [4] is S.aureus F1C. The experiment is described as follows: MIC, in vitro activity vs. S.aureus F1C. Set-up: unit not given beside the values. Format: cell-based, Staphylococcus aureus. The conditions noted are these: Incubated at 37° C. overnight. The protocol:
as §1, §2

Experiment [5] deals with Streptococcus uberis 150 L. The experiment is described as follows: MIC, in vitro activity vs. Streptococcus uberis 150 L. Format: cell-based. Also noted: unit not given beside the values. Particulars: Incubated at 37° C. overnight. The protocol: as §1, §2
Experiment [6] relates to Streptococcus uberis 166 L. In words: MIC, in vitro activity vs. Streptococcus uberis 166 L. Particulars: Incubated at 37° C. overnight. Also noted: unit not given beside the values. Format: cell-based. On the procedure: as §1, §2
Experiment [7] deals with Streptococcus agalactiae. In words: MIC, in vitro activity vs. Streptococcus agalactiae. Format: cell-based. Set-up: unit not given here. The conditions noted are these: Incubated at 37° C. overnight. The protocol:
as §1, §2

In experiment [8] the test system is Strepcococcus dysgalactiae. In words: MIC, in vitro activity vs. Streptococcus dysgalactiae. Format: cell-based. Also noted: unit not given here. Particulars: Incubated at 37° C. overnight. The protocol:
as §1, §2

The test system of experiment [9] is pasteurella multocida 108E (bovine). In words: MIC against Gram-negative organisms: pasteurella multocida 108E (bovine). Format: cell-based. The conditions noted are these: Incubated at 37° C. overnight; unit assumed. The protocol:
(§3) The formula I compounds are also active against certain Gram-negative species.
as §2

Experiment [10] concerns pasteurella multocida ATCC 12945. The experiment is described as follows: MIC against Gram-negative organisms: pasteurella multocida ATCC 12945. Format: cell-based. Particulars: Incubated at 37° C. overnight; unit assumed. On the procedure: as §3, §2
Experiment [11] deals with pasteurella multocida 1051 (swine). The experiment is described as follows: MIC against Gram-negative organisms: pasteurella multocida 1051 (swine). Particulars: Incubated at 37° C. overnight; unit assumed. Format: cell-based. The protocol: as §3, §2
Experiment [12] concerns pasteurella multocida 10,102 (bovine). The experiment is described as follows: MIC against Gram-negative organisms: pasteurella multocida 10,102 (bovine). Format: cell-based. Particulars: Incubated at 37° C. overnight; unit assumed. The protocol: as §3, §2
Experiment [13] has as its system Pasteurella haemolytica 114F (bovine). The experiment is described as follows: MIC against Gram-negative organisms: Pasteurella haemolytica 114F (bovine). Format: cell-based. The conditions noted are these: Incubated at 37° C. overnight; unit assumed. The protocol: as §3, §2
Experiment [14] relates to Pasteurella haemolytica 128K (bovine). In words: MIC against Gram-negative organisms: Pasteurella haemolytica 128K (bovine). Format: cell-based. Particulars: Incubated at 37° C. overnight; unit assumed. On the procedure: as §3, §2
In experiment [15] the test system is Pasteurella haemolytica 129R (bovine). The experiment is described as follows: MIC against Gram-negative organisms: Pasteurella haemolytica 129R (bovine). Format: cell-based. Particulars: Incubated at 37° C. overnight; unit assumed. The protocol: as §3, §2
The test system of experiment [16] is Salmonella typhimurium. The experiment is described as follows: MIC against Gram-negative organisms: Salmonella typhimurium. Format: cell-based. The conditions noted are these: Incubated at 37° C. overnight; unit assumed. The protocol: as §3, §2
Experiment [17] relates to Escherichia coli. In words: MIC against Gram-negative organisms: Escherichia coli. Format: cell-based. Particulars: Incubated at 37° C. overnight; unit assumed. On the procedure: as §3, §2
Experiment [18] relates to Staphylococcus aureus 10092 (Newbould). In words: Efficacy in induced Staphylococcus aureus mastitis model in lactating goats. Format: in vivo. The conditions noted are these: 8 halves per compound, 2 consecutive milkings 12 hours apart, approximately 25 mg/5 mL dose in peanut oil, from 36 hours post-challenge. An excerpt: Sixteen lactating goats were selected based on the absence of Staphylococcus aureus in pre-challenge milk cultures. Maintenance ration was provided to the animals throughout the study. The goats were milked twice each day using a portable goat milker.
Milk samples were collected during the morning milking. One day prior to challenge, milk culture samples were collected from each half of the test animals to determine if there was a pre-existing infection. Additionally, a sample was collected from each half for Somatic Cell Count (SCC) determination. A milk culture sample and a sample for SCC were collected from each half 24 hours post-challenge and on Days +4 to +6, +8, +11, +13, and +15.
Udder scoring was performed during each milking wing table:
General health observations and body temperature were recorded once a day following milking during the challenge and treatment periods.
Milk samples were submitted for analysis for SCC using an electronic somatic cell counting system.
Milk culture samples were assayed for bacterial culture by plating 1.0 mL and 0.1 mL of the milk sample directly onto duplicate blood agar plates. Additionally, dilutions 10^-1 of the milk sample were plated. Plates were incubated overnight at 37° C.
Staphylococcus aureus 10092 (Newbould) was used as the challenge strain. The challenge culture was grown in Tryptic Soy Broth (TSB) from a lyovial stock overnight (16 hours) at 37° C. TSB (100 mL) was inoculated with 1 mL of the overnight culture and incubated at 37° C. with shaking for 4 hours. The culture was centrifuged at 9000 rpm for 10 minutes at 10° C.; supernatant was removed and the pellet was resuspended in phosphate buffered saline (PBS). Optimum O.D. reading at 650 nm was approximately 0.035. A 10-fold dilution series was prepared with saline to determine the CFU/mL, plating 10^-5, 10^-6, and 10^-7 dilutions onto duplicate blood agar plates. The 10^-7 dilution (approximately 10 CFU/mL) was used for the challenge material, yielding a challenge of 50 CFU/half with a 5-mL infusion.
Sixteen goats were used for the trial. During a one day pre-challenge period, milk samples were collected and temperatures were taken during the morning milking. Milk/udder evaluations were documented during the morning and afternoon milkings.
Staphylococcus aureus 10092 was infused into both halves in each of the goats. The goats were challenged following the morning milking and milked in the afternoon on the day of challenge. The challenge inoculum volume was 5 mL/half containing approximately 50 CFU S. aureus.
For the 24 hr post-challenge period milk samples were collected during the morning milking, and milk/udder evaluations made during the morning and afternoon milking.
Treatment was started at 36 hours post-challenge. Milk samples were collected for culture and SCC 24 hours post-challenge, prior to the morning milking, and the treatment period started following the afternoon milking.
Eight halves (4 goats) each were treated for 2 consecutive milkings 12 hours apart, following milking. Each designated compound was formulated in peanut oil with […] of compound per 5 g of formulation to give approximately 25 mg/5 mL dose.
Following treatment, the goats were milked and observed for 15 days. Milk samples were collected on Days +4 to +6, +8, +11, +13, and +15 to determine if the infection had cleared.
Establishment of mastitis was determined by bacterial culturing, severity of udder scoring, somatic cell count results, and body temperature.
On Days +2 to +6, milk samples were collected for a calorimetric assay to determine whether the antibiotic was still present in the milk.

The test system of experiment [19] is Mastitis in Cows. The experiment is described as follows: Efficacy in mastitis in lactating cows. Format: in vivo. Particulars: three trials, 450 mmoles/quarter/dose for two doses. The protocol:
Compound 1 was administered to lactating cows in three trials using methods analogous to those used in the goat model described in Example 13. A total of 43 quarters were treated with Compound 1, and 36 quarters were treated with cephapirin (Cefa-Lak). Both compounds were administered at 450 mmoles/quarter/dose for two doses. Compound 1 effectively treated 27 out of 43 quarters for an overall cure rate of 63%, whereas cephapirin effectively treated 18 out of 36 quarters for an overall cure rate of only 50%.

Take `Cc1nnc(SCC2=C(C(=O)O)N3C(=O)[C@@H](NC(=O)COc4c(F)c(F)c(F)c(F)c4F)[C@H]3SC2)s1` [Compound 1]: the “MIC vs. S.aureus ATCC 29213” value in [1] amounted to 0.25. The “MIC vs. S.aureus 174 C” value in [2] came out at 0.25. Further, the “MIC vs. S.aureus 10092” value in [3] amounted to 0.25. The “MIC vs. S.aureus F1C” value in [4] came out at 0.5. In addition, the “MIC vs. Streptococcus uberis 150 L” value in experiment [5] amounted to 0.25. Moreover, the “MIC vs. Streptococcus uberis 166 L” value in experiment [6] was determined as 0.25. Further, the “MIC vs. Streptococcus agalactiae” value in [7] worked out at 0.25. The “MIC vs. Strepcococcus dysgalactiae” value in [8] was found to be 0.125. The MIC, pasteurella multocida 108E (bovine) in [9] was determined as 0.25 µg/mL (≈ 0.44 µM). In experiment [10], this compound displayed an MIC, pasteurella multocida ATCC 12945 of 0.25 µg/mL (≈ 0.44 µM). This compound also gave an MIC, pasteurella multocida 1051 (swine) in experiment [11] of 0.25 µg/mL (≈ 0.44 µM). The same compound showed an MIC, pasteurella multocida 10,102 (bovine) in experiment [12] of 0.25 µg/mL (≈ 0.44 µM). Besides, the MIC, Pasteurella haemolytica 114F (bovine) in [13] was determined as 8 µg/mL (≈ 14.1 µM). In experiment [14], this compound yielded an MIC, Pasteurella haemolytica 128K (bovine) of 4 µg/mL (≈ 7.04 µM). Moreover, in experiment [15], the MIC, Pasteurella haemolytica 129R (bovine) is 4 µg/mL (≈ 7.04 µM). Also, in experiment [16], the MIC, Salmonella typhimurium is not above 128 µg/mL. In experiment [17], this compound gave an MIC, Escherichia coli not above 128 µg/mL. In addition, the “% Bacteriologic Cures” value in experiment [18] is recorded as 71%. Moreover, in experiment [19], the overall cure rate came to 63% and the quarters effectively treated is listed as 27 out of 43.
